Test results as given in PMC10218905, “Improving the Enzymatic Activity and Stability of a Lytic Polysaccharide Monooxygenase” (International Journal of Molecular Sciences, 2023).

Tests used:
Assay in all cases: spectrophotometric oxidation assay at […] nm
Format in all cases: biochemical
Conditions in all cases: 100 µM H2O2 co-substrate, copper-loaded enzyme, 100 mM sodium acetate pH 6.0, 30 °C; read-out: Km app
[1] = target: T1, BaLPMO10A (Bacillus velezensis, UniProt A7Z541, I31V/E151D, form not given)
T1 construct: gene RBAM_017540; mature enzyme with native N-terminus; N-terminal SUMO tag cleaved, C-terminal 6xHis tag; pET-20b, E. coli BL21(DE3); copper-saturated

[2] = target: T2, BaLPMO10A (Bacillus velezensis, UniProt A7Z541)
T2 construct: gene RBAM_017540; mature enzyme with native N-terminus; N-terminal SUMO tag cleaved, C-terminal 6xHis tag; pET-20b, E. coli BL21(DE3); copper-saturated

[3] = target: T3, BaLPMO10A (Bacillus velezensis, UniProt A7Z541, V67L/E151D, form not given)
T3 construct: gene RBAM_017540; mature enzyme with native N-terminus; N-terminal SUMO tag cleaved, C-terminal 6xHis tag; pET-20b, E. coli BL21(DE3); copper-saturated

[4] = target: T4, BaLPMO10A (Bacillus velezensis, UniProt A7Z541, V67L, form not given)
T4 construct: gene RBAM_017540; mature enzyme with native N-terminus; N-terminal SUMO tag cleaved, C-terminal 6xHis tag; pET-20b, E. coli BL21(DE3); copper-saturated
T4 sequence (A7Z541 entry or part of it V67L, form open): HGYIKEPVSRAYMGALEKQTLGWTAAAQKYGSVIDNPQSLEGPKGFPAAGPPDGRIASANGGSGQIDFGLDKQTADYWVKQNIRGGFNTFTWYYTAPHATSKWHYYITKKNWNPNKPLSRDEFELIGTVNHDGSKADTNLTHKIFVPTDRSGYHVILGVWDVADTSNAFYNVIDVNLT

T1 sequence (A7Z541 entry or part of it I31V/E151D, form open): as the sequence (A7Z541 entry or part of it V67L, form open) above, with I4V, L40V, E124D counted along it
T3 sequence (A7Z541 entry or part of it V67L/E151D, form open): as the sequence (A7Z541 entry or part of it V67L, form open) above, with E124D counted along it
T2 sequence (A7Z541 entry or part of it): as the sequence (A7Z541 entry or part of it V67L, form open) above, with L40V counted along it

## COc1cccc(OC)c1O [2,6-DMP, 2,6-Dimethoxyphenol]
[1]
  Km: 95.5 ± 9.5 mM
[2]
  Km: 41.3 ± 7.33 mM
[3]
  Km: 33.5 ± 1.6 mM
[4]
  Km: 32.5 ± 3.6 mM
